This passage reports Kd and Ki results from US6667303B1, “Aryl substituted 1,4-diazepanes and method of use thereof” (Wyeth, priority 2001, dated 2003).

The Kd is the free concentration of one partner at which half of the binding sites on the other are occupied at equilibrium, for simple one-to-one binding. The term Ki denotes the dissociation constant of the complex between target and ligand, obtained from inhibition or displacement.

The structures appear in SMILES notation.

In the first assay the target is T1, human serotonin 5HT2C receptor (Homo sapiens, UniProt P28335).
T1 construct: expressed in transfected cells; host or cells: CHO (Chinese Hamster Ovary) cells; membrane preparation
T1 sequence (P28335 33-458): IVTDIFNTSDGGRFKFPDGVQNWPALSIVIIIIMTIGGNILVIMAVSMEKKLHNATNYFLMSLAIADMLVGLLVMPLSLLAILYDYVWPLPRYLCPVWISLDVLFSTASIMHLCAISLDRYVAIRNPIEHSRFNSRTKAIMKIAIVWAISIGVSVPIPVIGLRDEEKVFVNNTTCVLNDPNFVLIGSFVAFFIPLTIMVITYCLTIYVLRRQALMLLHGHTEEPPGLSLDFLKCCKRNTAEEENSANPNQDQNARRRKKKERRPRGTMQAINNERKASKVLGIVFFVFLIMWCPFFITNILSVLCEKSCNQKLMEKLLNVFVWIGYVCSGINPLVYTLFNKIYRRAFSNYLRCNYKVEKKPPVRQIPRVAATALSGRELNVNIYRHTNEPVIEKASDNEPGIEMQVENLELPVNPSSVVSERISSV
The assay is described as follows: saturation binding with increasing concentrations of [125I] DOI.
Details: not given
As for the experimental part:
To determine for compounds of Formula (I) the affinity for the 5HT2C receptor, the following 5HT2C receptor binding assay was performed. A CHO (Chinese Hamster Ovary) cell line transfected with the cDNA expressing the human 5-hydroxytryptamine2C (h5HT2C) receptor was maintained in DMEM (Dulbecco's Modified Eagle Media) supplied with fetal calf serum, glutamine, and the markers: guaninephosphoribosyl transferase (GTP) and hypoxanthinethymidine (HT). The cells were allowed to grow to confluence in large culture dishes with intermediate changes of media and splitting. Upon reaching confluence, the cells were harvested by scraping. The harvested cells were suspended in half volume of fresh physiological phosphate buffered saline (PBS) solution and centrifuged at low speed (900×g). This operation was repeated once more. […] The resulting pellet was resuspended in a small volume of Tris.HCl buffer and the tissue protein content was determined in aliquots of 10-25 microliter (μl) volumes. […]
The dissociation constant, KD of [^125I] […] Nonspecific binding was measured in the presence of 1 μM unlabeled DOI added in 20.0 μl volume. […] The bound complex caught on the filter disk was dried in a vacuum oven heated to 60° C. and the radioactivity measured by liquid scintillation with 40 μl Microscint-20 scintillant in a Packard TopCount® equipped with six (6) photomultiplier detectors.
For `COc1cc(CC(C)N)c(OC)cc1I` (stereo not shown) [[^125I] DOI, 1-(4-iodo-2,5-dimethoxyphenyl)-2-aminopropane], the Kd amounted to 0.4 nM. This counts as sub-nanomolar.

A further assay deals with T2, human 5-hydroxytryptamine2C (h5HT2C) receptor (Homo sapiens, UniProt P28335).
T2 construct: expressed in transfected cells; host or cells: CHO (Chinese Hamster Ovary) cells; membrane preparation
T2 sequence (P28335 33-458): T1 sequence (P28335 33-458)
The assay is described as follows: 5HT2C receptor binding assay ([125I] DOI displacement).
Details: not given
How it is done:
To determine for compounds of Formula (I) the affinity for the 5HT2C receptor, the following 5HT2C receptor binding assay was performed. A CHO (Chinese Hamster Ovary) cell line transfected with the cDNA expressing the human 5-hydroxytryptamine2C (h5HT2C) receptor was maintained in DMEM (Dulbecco's Modified Eagle Media) supplied with fetal calf serum, glutamine, and the markers: guaninephosphoribosyl transferase (GTP) and hypoxanthinethymidine (HT). The cells were allowed to grow to confluence in large culture dishes with intermediate changes of media and splitting. Upon reaching confluence, the cells were harvested by scraping. The harvested cells were suspended in half volume of fresh physiological phosphate buffered saline (PBS) solution and centrifuged at low speed (900×g). This operation was repeated once more. The collected cells were then homogenized with a polytron at setting #7 for 15 sec in ten volumes of 50 mM Tris.HCl, pH 7.4 and 0.5 mM EDTA. The homogenate was centrifuged at 900×g for 15 min to remove nuclear particles and other cell debris. The pellet was discarded and the supernatant fluid recentrifuged at 40,000×g for 30 min. The resulting pellet was resuspended in a small volume of Tris.HCl buffer and the tissue protein content was determined in aliquots of 10-25 microliter (μl) volumes. Bovine Serum Albumin (BSA) was used as the standard in the protein determination by the method of Lowry et al., (J. Biol. Chem., 193:265 (1951)). The volume of the suspended cell membranes was adjusted with 50 mM Tris.HCl buffer containing: 0.1% ascorbic acid, 10 mM pargyline and 4 mM CaCl2 to give a tissue protein concentration of 1-2 mg per ml of suspension. The preparation membrane suspension (many times concentrated) was aliquoted in 1 ml volumes and stored at −70° C. until used in subsequent binding experiments.
Binding experiments were performed in a 96 well microtiter plate format, in a total volume of 200 μl. To each well was added: 60 μl of incubation buffer made in 50 mM Tris.HCl buffer, pH 7.4 and containing 4 mM CaCl2; 20 μl of […] DOI [1-(4-iodo-2,5-dimethoxyphenyl)-2-aminopropane] (S.A., 2200 Ci/mmol, NEN Life Science).
DOI. The reaction was initiated by the final addition of 100.0 μl of tissue suspension containing 50 μg of receptor protein. Nonspecific binding was measured in the presence of 1 μM unlabeled DOI added in 20.0 μl volume. Test compounds are added in […]. The mixture was incubated at room temperature for 60 min. The incubation was stopped by rapid filtration. The bound ligand-receptor complex was filtered off on a 96 well unifilter with a Packard® Filtermate 196 Harvester. The bound complex caught on the filter disk was dried in a vacuum oven heated to 60° C. and the radioactivity measured by liquid scintillation with 40 μl Microscint-20 scintillant in a Packard TopCount® equipped with six (6) photomultiplier detectors.
Description of this method can be found in Sanders-Bush, E. et al., Putative selective 5-HT2C antagonists block serotonin 5-HT1C receptors in the choroid plexus, J. Pharmacol. Exper. Ther., 247: 169-173 (1988), and Akiyoshi, J., et al., Effects of antidepressants on intracellular calcium mobilization in CHO cells transfected with the human 5-HT2C receptors, Biol. Psychiatry, 39:1000-1008 (1996).
Specific binding is defined as the total radioactivity bound less the amount bound in the presence of 1 μM unlabeled DOI. Binding in the presence of varying concentrations of test drugs was expressed as percent of specific binding in the absence of drug. […] Alternatively, a linear regression line of decline of data points was plotted, from which the IC50 value was read off the curve and the Ki value determined by solving the following equation: [formula]
Molecule `COc1cc(CC(C)N)c(OC)cc1I` (stereo not shown) [DOI, 1-(4-iodo-2,5-dimethoxyphenyl)-2-aminopropane, reference compound] displayed a Ki of 19.5 nM.

The molecule `CC(C)CN1CCCN(c2ccc3c4c(cccc24)C(=O)N3CC2CCC2)CC1` [Example 24, 1-(cyclobutylmethyl)-6-(4-isobutyl-1,4-diazepan-1-yl)benzo[cd]indol-2(1H)-one] had an inhibition constant (Ki) of 260 nM. Same read-out and setting: the figure for `O=C1c2cccc3c(N4CCCN(CC5CCC5)CC4)ccc(c23)N1CC1CCC1` [Example 32, 1-(cyclobutylmethyl)-6-[4-(cyclobutylmethyl)-1,4-diazepan-1-yl]benzo[cd]indol-2(1H)-one] is 256 nM; for `CCCCCN1CCCN(c2ccc3c4c(cccc24)C(=O)N3CCCC(F)(F)F)CC1` [Example 80, 6-(4-pentyl-1,4-diazepan-1-yl)-1-(4,4,4-trifluorobutyl)benzo[cd]indol-2(1H)-one] it is 190 nM. Take `C=CCN1CCCN(c2ccc3c4c(cccc24)C(=O)N3CC2CCC2)CC1` [Example 22, 6-(4-allyl-1,4-diazepan-1-yl)-1-(cyclobutylmethyl)benzo[cd]indol-2(1H)-one]: the inhibition constant (Ki) was 241 nM.

The same assay, now with this note: membranes of CHO cells expressing h5HT2C; radioligand [125I] DOI; room temperature, 60 min; read-out: 5HT2C Binding Affinity Ki.
As to `O=C1c2cccc3c(N4CCCN(CCc5ccccc5)CC4)ccc(c23)N1CCCC(F)(F)F` [Example 85, 6-[4-(2-phenylethyl)-1,4-diazepan-1-yl]-1-(4,4,4-trifluorobutyl)benzo[cd]indo-2(1H)-one], the Ki came out at 112 nM. On the same count and under the same terms, the figure for `O=C1c2cccc3c(N4CCCN(CCc5ccccc5)CC4)ccc(c23)N1CC1CCC1` [Example 28, 1-(cyclobutylmethyl)-6-[4-(2-phenylethyl)-1,4-diazepan-1-yl]benzo[cd]indol-2(1H)-one] is 178 nM.

Take `COc1ccc(CN2C(=O)c3cccc4c(N5CCCN(CCCc6ccccc6)CC5)ccc2c34)cc1` [Example 11]: the Ki is 165 nM. Still for that read-out and setting: the figure for `COc1ccc(CN2C(=O)c3cccc4c(N5CCCN(CC6CCC6)CC5)ccc2c34)cc1` [Example 13, 6-[4-(cyclobutylmethyl)-1,4-diazepan-1-yl]-1-(4-methoxybenzyl)benzo[cd]indol-2(1H)-one] is 257 nM; for `CCCCCN1CCCN(c2ccc3c4c(cccc24)C(=O)N3CC)CC1` [Example 44, 1-ethyl-6-(4-pentyl-1,4-diazepan-1-yl)benzo[cd]indol-2(1H)-one] it is 247 nM.

Consider `CCCN1CCCN(c2ccc3c4c(cccc24)C(=O)N3Cc2ccc(OC)cc2)CC1` [Example 88, 1-(4-methoxybenzyl)-6-(4-propyl-1,4-diazepan-1-yl)benzo[cd]indol-2(1H)-one], for which the inhibitory constant (Ki) is 243 nM. Still for that read-out and setting: the figure for `COc1ccc(CN2C(=O)c3cccc4c(N5CCCN(CC(C)(C)C)CC5)ccc2c34)cc1` [Example 5, 1-(4-methoxybenzyl)-6-(4-neopentyl-1,4-diazepan-1-yl)benzo[cd]indol-2(1H)-one] is 132 nM.
